Reference: PubChem BioAssay (NCI)
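All cell lines were grown in 96-well plates and treated with compound for 48 hours. The concentration for 50% growth inhibition is given as GI50. At the TGI there is no net growth.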

Key:
Test in all cases: inhibition of tumour cell growth, NCI panel, 48 h
[1] = system: 786-0 renal
[2] = system: A498 renal
[3] = system: A549 NSCLC
[4] = system: ACHN renal
[5] = system: BT-549 breast
[6] = system: CAKI-1 renal
[7] = system: CCRF-CEM leukemia
[8] = system: COLO 205 colon
[9] = system: DU-145 prostate
[10] = system: EKVX NSCLC
[11] = system: HCC-2998 colon
[12] = system: HCT-116 colon
[13] = system: HCT-15 colon
[14] = system: HL-60(TB) leukemia
[15] = system: HOP-62 NSCLC
[16] = system: HOP-92 NSCLC
[17] = system: HS 578T breast
[18] = system: HT29 colon
[19] = system: IGROV1 ovarian
[20] = system: K-562 leukemia
[21] = system: KM12 colon
[22] = system: LOX IMVI melanoma
[23] = system: M14 melanoma
[24] = system: MALME-3M melanoma
[25] = system: MCF7 breast
[26] = system: MDA-MB-231 breast
[27] = system: MDA-MB-435
[28] = system: MDA-MB-468 breast
[29] = system: MOLT-4 leukemia
[30] = system: NCI-H226 lung
[31] = system: NCI-H23 lung
[32] = system: NCI-H460 lung
[33] = system: NCI-H522 lung
[34] = system: OVCAR-3 ovarian
[35] = system: OVCAR-4 ovarian
[36] = system: OVCAR-5 ovarian
[37] = system: OVCAR-8 ovarian
[38] = system: PC-3 prostate
[39] = system: RPMI-8226 leukemia
[40] = system: RXF 393 renal
[41] = system: SF-268 CNS
[42] = system: SF-295 CNS
[43] = system: SF-539 CNS
[44] = system: SK-MEL-2 melanoma
[45] = system: SK-MEL-28 melanoma
[46] = system: SK-MEL-5 melanoma
[47] = system: SK-OV-3 ovarian
[48] = system: SN12C renal
[49] = system: SNB-19 CNS
[50] = system: SNB-75 CNS
[51] = system: SR leukemia
[52] = system: SW-620 colon
[53] = system: T-47D breast
[54] = system: TK-10 renal
[55] = system: U251 CNS
[56] = system: UACC-257 melanoma
[57] = system: UACC-62 melanoma
[58] = system: UO-31 renal

CC(=O)Oc1ccccc1C(=O)[Se]C(=NC1CCCCC1)NC1CCCCC1
GI50 [1]: 1760 nM | TGI [1]: 3160 nM | GI50 [2]: 2310 nM | TGI [2]: 6730 nM | GI50 [3]: 3010 nM | TGI [3]: 10600 nM | GI50 [4]: 1790 nM | TGI [4]: 3270 nM | GI50 [5]: 1640 nM | TGI [5]: 3070 nM | GI50 [6]: 1690 nM | TGI [6]: 3110 nM | GI50 [7]: 2030 nM | TGI [7]: 5050 nM | GI50 [8]: 1950 nM | TGI [8]: 4360 nM | GI50 [9]: 1790 nM | TGI [9]: 3280 nM | GI50 [10]: 1650 nM | TGI [10]: 3060 nM | GI50 [11]: 1720 nM | TGI [11]: 3120 nM | GI50 [12]: 1900 nM | TGI [12]: 3730 nM | GI50 [13]: 1780 nM | TGI [13]: 3560 nM | GI50 [14]: 1950 nM | TGI [14]: 4710 nM | GI50 [15]: 1700 nM | TGI [15]: 3360 nM | GI50 [16]: 1810 nM | TGI [16]: 4230 nM | GI50 [17]: 2050 nM | TGI [17]: 5370 nM | GI50 [18]: 2190 nM | TGI [18]: 5480 nM | GI50 [19]: 1760 nM | TGI [19]: 3170 nM | GI50 [20]: 2090 nM | TGI [20]: 5210 nM | GI50 [21]: 1830 nM | TGI [21]: 3390 nM | GI50 [22]: 1650 nM | TGI [22]: 3100 nM | GI50 [23]: 1690 nM | TGI [23]: 3190 nM | GI50 [24]: 1730 nM | TGI [24]: 3200 nM | GI50 [25]: 1820 nM | TGI [25]: 3400 nM | GI50 [26]: 1850 nM | TGI [26]: 3580 nM | GI50 [27]: 1790 nM | TGI [27]: 3330 nM | GI50 [28]: 1750 nM | TGI [28]: 3320 nM | GI50 [29]: 2390 nM | TGI [29]: 5560 nM | GI50 [30]: 1600 nM | TGI [30]: 3210 nM | GI50 [31]: 1660 nM | TGI [31]: 3200 nM | GI50 [32]: 1980 nM | TGI [32]: 4370 nM | GI50 [33]: 1560 nM | TGI [33]: 3030 nM | GI50 [34]: 1840 nM | TGI [34]: 3390 nM | GI50 [35]: 1740 nM | TGI [35]: 3300 nM | GI50 [36]: 1690 nM | TGI [36]: 3230 nM | GI50 [37]: 1720 nM | TGI [37]: 3140 nM | GI50 [38]: 1830 nM | TGI [38]: 3620 nM | GI50 [39]: 2160 nM | TGI [39]: 5390 nM | GI50 [40]: 1670 nM | TGI [40]: 3040 nM | GI50 [41]: 2330 nM | TGI [41]: 5680 nM | GI50 [42]: 1610 nM | TGI [42]: 3160 nM | GI50 [43]: 1670 nM | TGI [43]: 3040 nM | GI50 [44]: 1640 nM | TGI [44]: 3150 nM | GI50 [45]: 1760 nM | TGI [45]: 3270 nM | GI50 [46]: 1630 nM | TGI [46]: 3060 nM | GI50 [47]: 1690 nM | TGI [47]: 3180 nM | GI50 [48]: 1730 nM | TGI [48]: 3120 nM | GI50 [49]: 1670 nM | TGI [49]: 3100 nM | GI50 [50]: 1370 nM | TGI [50]: 2780 nM | GI50 [51]: 1960 nM | TGI [51]: 4710 nM | GI50 [52]: 1790 nM | TGI [52]: 3370 nM | GI50 [53]: 2000 nM | TGI [53]: 5170 nM | GI50 [54]: 1640 nM | TGI [54]: 3030 nM | GI50 [55]: 1720 nM | TGI [55]: 3360 nM | GI50 [56]: 1680 nM | TGI [56]: 3150 nM | GI50 [57]: 1670 nM | TGI [57]: 3290 nM | GI50 [58]: 1620 nM | TGI [58]: 2970 nM
